Results from patent publication US20220098159A1, “CARBAMATE DERIVATIVES AND USES THEREOF” (Nodthera Limited, priority 2019, published 2022).
Like-named read-outs stand apart in the source and are kept apart here.

Test system: IL-1β release upon NLRP3 activation in peripheral blood mononuclear cells (PBMC)
Assay: PBMC IC50 determination assay (inhibition of IL-1β release upon NLRP3 activation)
Type: cell-based
Settings: Homo sapiens
Description: The compounds of the present disclosure were tested for their inhibitory activity against IL-1β release upon NLRP3 activation in peripheral blood mononuclear cells (PBMC).
Protocol A. PBMC were isolated from buffy coats by density gradient centrifugation on Histopaque-1077 (Sigma, cat no. 10771). Isolated cells were seeded into the wells of a 96-well plate and incubated for 3 h with lipopolysaccharide (LPS). Following medium exchange, the compounds of the present disclosure were added (a single compound per well) and the cells were incubated for 30 min. Next, the cells were stimulated either with ATP (5 mM) or nigericin (10 μM) for 1 h and the cell culture media from the wells were collected for further analysis.
The release of IL-1β into the media was determined by a quantitative detection of IL-1β in the media using an IL-1β enzyme-linked immunosorbent assay (ELISA) Ready-SET-Go!, eBioscience cat. No. 88-7261-88. Briefly, in a first step, high affinity binding plates (Corning, Costar 9018 or NUNC Maxisorp Cat No. 44-2404) were coated overnight at 4° C. with specific capture antibody included in the kit (anti-human IL-1β ref. 14-7018-68). Subsequently, plates were blocked with blocking buffer for 1 h at room temperature (rt) and after washing with a buffer (PBS with 0.05% Tween-20) incubated with protein standard and culture media. After 2 h of incubation at rt, plates were washed and incubated with biotinylated detection antibody included in the kit (anti-human IL-1β Biotin ref. 33-7110-68) for 1 h at rt. Plates were washed and incubated with HRP-streptavidin for 30 min at rt and washed again. The signal was developed after addition of 3,3′,5,5′-tetramethylbenzidine-peroxidase (TMB) until colour appeared and the reaction was stopped by 2 M H2SO4. A microplate spectrophotometer (BioTek) was used to detect signals with 450 nm. The detection range of IL-1β ELISA was 2-150 ng/ml.
Protocol B. PBMC were isolated from buffy coats by density gradient centrifugation on Histopaque-1077 (Sigma, cat no. 10771). Isolated cells were seeded into the wells (280,000 cells/well) of a 96-well plate and incubated for 3 h with lipopolysaccharide (LPS, 1 μg/ml diluted 1000× from a 1 mg/ml stock solution). The compounds of the present disclosure were added (a single compound per well) and the cells were incubated for 30 min. Next, the cells were stimulated with ATP (5 mM final concentration diluted 20× from a 100 mM stock solution) for 1 h and the cell culture media from the wells were collected for further analysis.
The release of IL-1β into the media was determined by quantitative detection of IL-1β in the media using HTRF®, CisBio cat. No. 62HIL1BPEH. Briefly, cell culture supernatant were dispensed directly into the assay plate containing antibodies labelled with the HTRF® donor and acceptor. A microplate spectrophotometer (BMG) was used to detect signals at 655 nm and 620 nm. The detection range of IL-1β HTRF® was 39-6500 pg/ml.

[1] = PBMC from buffy coats, LPS 3 h, compound 30 min, then ATP (5 mM) or nigericin (10 μM) 1 h, IL-1β in media by ELISA (Protocol A) or HTRF (Protocol B), read-out: Average PBMC IC50
[2] = PBMC, read-out: Average PBMC IC50 (μM)

| Structure (SMILES) | IC50 [1] [µM] | IC50 [2] [µM] |
| --- | --- | --- |
| CCOC(=O)C(Cn1cccn1)OC(=O)N[C@@H](C)c1ccc(Cl)cc1 (stereo partly drawn) [Compound 1, Ethyl 2-({[(1S)-1-(4-chlorophenyl)ethyl]carbamoyl}oxy)-3-(1H-pyrazol-1-yl)propanoate] | 10 to 50 |  |
| CC(C)OC(=O)C(Cc1ncccn1)OC(=O)N[C@@H](C)c1ccc(Cl)c(Cl)c1 (stereo partly drawn) [Compound 2, Propan-2-yl 2-({[(1S)-1-(3,4-dichlorophenyl)ethyl]carbamoyl}oxy)-3-(pyrimidin-2-yl)propanoate] |  | 10 to 50 |
| CC(C)OC(=O)C(Cc1ncccn1)OC(=O)N[C@@H](C)c1ccc(Cl)cc1 (stereo partly drawn) [Compound 3, Propan-2-yl 2-({[(1S)-1-(4-chlorophenyl)ethyl]carbamoyl}oxy)-3-(pyrimidin-2-yl)propanoate] | < 1 |  |
| CC(C)OC(=O)C(Cc1ncccn1)OC(=O)N[C@@H](C)c1ccc(C#N)cc1 (stereo partly drawn) [Compound 4, Propan-2-yl 2-({[(1S)-1-(4-cyanophenyl)ethyl]carbamoyl}oxy)-3-(pyrimidin-2-yl)propanoate] | 1 to 3 |  |
| CC(C)OC(=O)C(Cc1ncccn1)OC(=O)N[C@@H](C)c1ccc(C(F)(F)F)cc1 (stereo partly drawn) [Compound 5, Propan-2-yl 3-(pyrimidin-2-yl)-2-({[(1S)-1-[4-(trifluoromethyl)phenyl]ethyl]carbamoyl}oxy)propanoate] | < 1 |  |
| CC(C)OC(=O)[C@@H](Cn1cncn1)OC(=O)N[C@@H](C)c1ccc(C(C)(C)C)cc1 [Compound 6, Propan-2-yl (2R)-2-({[(1S)-1-(4-tert-butylphenyl)ethyl]carbamoyl}oxy)-3-(1H-1,2,4-triazol-1-yl)propanoate] | < 1 |  |
| CC(C)OC(=O)[C@@H](Cn1cncn1)OC(=O)N[C@@H](C)c1ccc(OCC(F)(F)F)cc1 [Compound 7, Propan-2-yl (2R)-3-(1H-1,2,4-triazol-1-yl)-2-({[(1S)-1-[4-(2,2,2-trifluoroethoxy)phenyl]ethyl]carbamoyl}oxy)propanoate] | < 1 |  |
| CC(C)OC(=O)[C@@H](Cn1cncn1)OC(=O)N[C@@H](C)c1ccc(COc2ccccc2)cc1 [Compound 8, Propan-2-yl (2R)-2-({[(1S)-1-[4-(phenoxymethyl)phenyl]ethyl]carbamoyl}oxy)-3-(1H-1,2,4-triazol-1-yl)propanoate] | 1 to 3 |  |
| CC(C)OC(=O)[C@@H](Cn1cncn1)OC(=O)N[C@@H](C)c1ccc(C(F)(F)F)c(F)c1 [Compound 9, Propan-2-yl (2R)-2-({[(1S)-1-[3-fluoro-4-(trifluoromethyl)phenyl]ethyl]carbamoyl}oxy)-3-(1H-1,2,4-triazol-1-yl)propanoate] | < 1 |  |
| CC(C)OC(=O)[C@@H](Cn1cncn1)OC(=O)N[C@@H](C)c1ccc(C2CC2)cc1 [Compound 10, Propan-2-yl (2R)-2-({[(1S)-1-(4-cyclopropylphenyl)ethyl]carbamoyl}oxy)-3-(1H-1,2,4-triazol-1-yl)propanoate] |  | < 1 |
| CC(C)OC(=O)[C@@H](Cn1cncn1)OC(=O)N[C@@H](C)c1ccc(C(F)(F)F)cc1 [Compound 11, Propan-2-yl (2R)-3-(1H-1,2,4-triazol-1-yl)-2-({[(1S)-1-[4-(trifluoromethyl)phenyl]ethyl]carbamoyl}oxy)propanoate] | < 1 |  |
| CCc1ccc([C@H](C)NC(=O)O[C@H](Cn2cncn2)C(=O)OC(C)C)cc1 [Compound 12, Propan-2-yl (2R)-2-({[(1S)-1-(4-ethylphenyl)ethyl]carbamoyl}oxy)-3-(1H-1,2,4-triazol-1-yl)propanoate] |  | < 1 |
| CC(C)OC(=O)[C@@H](Cn1cncn1)OC(=O)N[C@@H](C)c1ccc(C(C)C)cc1 [Compound 13, Propan-2-yl (2R)-2-({[(1S)-1-[4-(propan-2-yl)phenyl]ethyl]carbamoyl}oxy)-3-(1H-1,2,4-triazol-1-yl)propanoate] |  | < 1 |
| CC(C)OC(=O)[C@@H](Cn1cncn1)OC(=O)N[C@@H](C)c1ccc(C(F)(F)F)nc1 [Compound 14, Propan-2-yl (2R)-3-(1H-1,2,4-triazol-1-yl)-2-({[(1S)-1-[6-(trifluoromethyl)pyridin-3-yl]ethyl]carbamoyl}oxy)propanoate] |  | 10 to 50 |
| CC(C)OC(=O)[C@@H](Cn1cncn1)OC(=O)N[C@H](C)c1ccc(C(F)(F)F)nc1 [Compound 15, Propan-2-yl (2R)-3-(1H-1,2,4-triazol-1-yl)-2-({[(1R)-1-[6-(trifluoromethyl)pyridin-3-yl]ethyl]carbamoyl}oxy)propanoate] |  | 10 to 50 |
| CC(C)OC(=O)C(Cc1ncccn1)OC(=O)NC(C)c1ccc(C(F)(F)F)cc1Cl (centres unmarked) [Compound 16, Isopropyl 2-[1-[2-chloro-4-(trifluoromethyl)phenyl]ethylcarbamoyloxy]-3-pyrimidin-2-yl-propaneate] | < 1 |  |
| CC(C)OC(=O)[C@@H](Cn1cncn1)OC(=O)NC(C)c1ncc(C(F)(F)F)cn1 (stereo partly drawn) [Compound 18, Propan-2-yl (2R)-3-(1H-1,2,4-triazol-1-yl)-2-[({1-[5-(trifluoromethyl)pyrimidin-2-yl]ethyl}carbamoyl)oxy]propanoate] | 3 to 10 |  |
| COc1cc(C(F)(F)F)ccc1C(C)NC(=O)OC(Cc1ncccn1)C(=O)OC(C)C (centres unmarked) [Compound 19, Propan-2-yl 2-[({1-[2-methoxy-4-(trifluoromethyl)phenyl]ethyl}carbamoyl)oxy]-3-(pyrimidin-2-yl)propanoate] | < 1 |  |
| Cc1cc(C(F)(F)F)ccc1C(C)NC(=O)OC(Cc1ncccn1)C(=O)OC(C)C (centres unmarked) [Compound 20, Isopropyl 2-[1-[2-methyl-4-(trifluoromethyl)phenyl]ethylcarbamoyloxy]-3-pyrimidin-2-yl-propanoate] | < 1 |  |
| CCCC(NC(=O)OC(Cc1ncccn1)C(=O)OC(C)C)c1ccc(C(F)(F)F)cc1 (centres unmarked) [Compound 21, Propan-2-yl 3-(pyrimidin-2-yl)-2-[({1-[4-(trifluoromethyl)phenyl]butyl}carbamoyl)oxy]propanoate] |  | 1 to 3 |
| CCc1cc(C(F)(F)F)ccc1C(C)NC(=O)OC(Cc1ncccn1)C(=O)OC(C)C (centres unmarked) [Compound 22, Propan-2-yl 2-[({1-[2-ethyl-4-(trifluoromethyl)phenyl]ethyl}carbamoyl)oxy]-3-(pyrimidin-2-yl)propanoate] | < 1 |  |
| CC(C)OC(=O)[C@@H](Cc1ncccn1)OC(=O)N[C@@H](C)c1ccc(C(F)(F)F)cc1 [Compound 23, Propan-2-yl (2R)-3-(pyrimidin-2-yl)-2-({[(1S)-1-[4-(trifluoromethyl)phenyl]ethyl]carbamoyl}oxy)propanoate] | < 1 |  |
| C[C@H](NC(=O)O[C@H](Cc1ncccn1)C(=O)O)c1ccc(C(F)(F)F)cc1 [Compound 24, (2R)-3-(Pyrimidin-2-yl)-2-({[(1S)-1-[4-(trifluoromethyl)phenyl]ethyl]carbamoyl}oxy)propanoic acid] | 3 to 10 |  |
| CC(C)OC(=O)[C@@H](Cc1ncccn1)OC(=O)N[C@@H](C)c1ccc(C(F)(F)F)cc1Cl [Compound 25, Propan-2-yl (2R)-2-({[(1S)-1-[2-chloro-4-(trifluoromethyl)phenyl]ethyl]carbamoyl}oxy)-3-(pyrimidin-2-yl)propanoate] | < 1 |  |
| C[C@H](NC(=O)O[C@H](Cc1ncccn1)C(=O)O)c1ccc(C(F)(F)F)cc1Cl [Compound 26, (2R)-2-({[(1S)-1-[2-Chloro-4-(trifluoromethyl)phenyl]ethyl]carbamoyl}oxy)-3-(pyrimidin-2-yl)propanoic acid] | 3 to 10 |  |
| CC(C)OC(=O)[C@@H](Cc1ncccn1)OC(=O)N(C)[C@@H](C)c1ccc(C(F)(F)F)cc1Cl [Compound 27, Propan-2-yl (2R)-2-({[(1S)-1-[2-chloro-4-(trifluoromethyl)phenyl]ethyl](methyl)carbamoyl}oxy)-3-(pyrimidin-2-yl)propanoate] | 1 to 3 |  |
